The record followed here is patent US12310955B2 (priority 2020, dated 2025).

SMILES strings stand for the structures. Like-named read-outs stand apart in the source and are kept apart here.

In the assay the test system is recombinant rabies virus 1088 strain expressing Gaussia Luciferase (1088/GLuc). As to the kind of experiment: microbe, parasite or virus in culture. Type of assay: cell-based.

Regarding `COc1ccc(CN2C[C@H]3C[C@]4(C(=O)NCc5ccccc5)NC(=O)[C@H]3[C@H]2[C@H]4CC(C)C)cc1` (relative stereo) [Compound I-5, (3S*,3aR*,6S*,7R*,7aR*)-N-benzyl-7-isobutyl-1-(4-methoxybenzyl)-4-oxooctahydro-6H-3,6-methanopyrrolo[3,2-c]pyridine-6-carboxamide], the IC50 (Lyssavirus rabies, N2a, 72 h, read-out: Anti-rabies activity) is under 5 µM.

Regarding `NC(=O)c1nc(F)c[nH]c1=O` [Compound T-705, reference compound], the IC50 (Lyssavirus rabies, N2a, 72 h, read-out: anti-rabies virus activity IC50) came out at 30 µM.

In the case of `Cc1ccc2c(C[C@@H]3[C@H]4C[C@H]5CN[C@@H]3[C@@]5(C(=O)NCC3CCCCCC3)N(CC(C)C)C4=O)cn(C(=O)OC(C)(C)C)c2c1` [IB-814], the IC50 (read-out: Anti-rabies activity) lay within 10 to 30 µM.

Regarding `Cc1ccc2c(CN3CC4CC5(C(=O)NCC6CCCCCC6)NC(=O)C4C3C5CC(C)C)cn(C(=O)OC(C)(C)C)c2c1` (racemic) [IF-782], the IC50 (read-out: Anti-rabies activity) fell in the range of 10 to 30 µM.

For the compound `CC(C)CN1C(=O)[C@@H]2C[C@H]3CN[C@@H]([C@@H]2Cc2c[nH]c4cc(F)ccc24)[C@]31C(=O)NCC1CCCCCC1` [IB-817], for the setting “read-out: Anti-rabies activity”, the IC50 was 10 to 30 µM.
